Assay results: patent publication US20240033237A1, “USE OF A-KETOGLUTARATE IN MANUFACTURE OF MEDICAMENT” (TONGJI UNIVERSITY, priority 2019, published 2024)

How the values were obtained:
chondrocytes [1] = assay: Catabolic phenotype of IL-1β-stimulated mouse chondrocytes (whole-genome sequencing, q-PCR, western blot); assay type: cell-based
Method: (§1) Mouse chondrocytes were obtained from 7-day-old C57BL/6 mice (Shanghai Slac laboratory animal Co., Ltd.), and the procedure was as follows: under aseptic surgical conditions, bilateral knee cartilages of C57 mice were carefully stripped and digested with 0.2% neutral collagenase (Serva, Germany) for 8 h; cell precipitates were obtained by centrifugation, and the cells were resuspended in modified Eagle medium (DMEM) (Gibco, USA) containing 10% FBS, inoculated in culture dishes, and cultured with high-sugar DMEM medium (containing 10% FBS, 100 U/mL penicillin and 100 mg/L streptomycin) at 37° C. in a 5% CO2 constant temperature incubator. The medium was changed for the first time at 48 h. […] The cells were collected by centrifugation and resuspended, and the concentration was adjusted for inoculation in culture dishes. The cells were subcultured by the above method, and the obtained cells were labeled as P1, P2, P3 generations, etc.
(2) Real-Time Fluorescent Quantitative PCR (Real Time q-PCR) Analysis • 1) The P1 generation mouse chondrocytes cultured in Embodiment 1 were used, the culture medium was sucked out from the culture dish, and the cells were washed once with PBS. • 2) Extraction of total RNA • 1. chloroform (⅕ volume of RNAiso Plus) was added to the homogenate lysate, the cover of the centrifuge tube was closed tightly, and the centrifuge tube was shaken violently by hand for 15 seconds. After the solution is fully emulsified (without phase separation phenomenon), the centrifuge tube was allowed to stand at room temperature for 5 minutes. • 2. the centrifuge tube was centrifuged at 12000 g under 4° C. for 5 minutes. • 3. the centrifuge tube was carefully taken out from the centrifugal machine, at this time the homogenate was divided into three layers: a colorless supernatant, a white protein layer in the middle, and a lower organic phase with color. […] Precipitate usually occurs at the bottom of a test tube after centrifugation.
On ice, SYBR Premix Ex Taq, upstream and downstream primers of catabolic and synthetic genes of chondrocytes, ROX Reference Dye, cDNA template and dH2O were added into a test tube. After being mixed evenly, the mixture was evenly divided into PCR tubes. The PCR tubes were placed in a Q-PCR instrument to detect the product.
P1 generation mouse chondrocytes cultured in Embodiment 1 were subjected to western blot analysis through operations including the following: • 1. Collecting of protein samples: The culture medium was sucked out, and the cells were washed twice with PBS at 4° C. and then dried. 100 μl of cell lysate was added to each well, the cells were lysed on ice for 10 min, and collected into a 1.5 ml centrifuge tube. […] The protein concentration was determined by the BCA Protein Quantification Kit. […]

chondrocytes [2] = assay: Synthetic phenotype of IL-1β-stimulated mouse chondrocytes (whole-genome sequencing, q-PCR, western blot); assay type: cell-based
Method: as §1
(2) Real-Time Fluorescent Quantitative PCR (Real Time q-PCR) Analysis • 1) The P1 generation mouse chondrocytes cultured in Embodiment 1 were used, the culture medium was sucked out from the culture dish, and the cells were washed once with PBS. • 2) Extraction of total RNA • 1. chloroform (⅕ volume of RNAiso Plus) was added to the homogenate lysate, the cover of the centrifuge tube was closed tightly, and the centrifuge tube was shaken violently by hand for 15 seconds. […]
P1 generation mouse chondrocytes cultured in Embodiment 1 were subjected to western blot analysis through operations including the following: • 1. […] The protein concentration was determined by the BCA Protein Quantification Kit. […]

articular cartilage = assay: Mouse model of knee osteoarthritis (DMM), intra-articular injection, Safranin-O/fast green staining and OARSI score; assay type: in vivo, C57BL/6 mice; conditions: 8 weeks after DMM surgery, once a week, 5 times
Excerpt: Male C57BL/6 mice (n=30) were purchased from Shanghai Slac laboratory animal Co., Ltd. and reared to 8 weeks of age. The animal experimental operation method was reviewed and approved by the Ethics Committee of Tongji University School of Medicine. Male C57BL/6 mice reared to 8 weeks of age were anaesthetized, and a longitudinal incision was made in the medial side of the knee joint. The articular cavity was opened along the medial side of the patellar ligament, the fat pad in the intercondylar area was bluntly separated, and the meniscus tibial ligament connecting the medial meniscus was found and transected. The incision was closed after hemostasis by compression, and the mice were continued to be fed. The mice were anesthetized and sacrificed at 4, 8 and 12 weeks after surgery (n=8 for each group), and the knee joints were isolated for histological examination, forming the treatment group. Male C57BL/6 mice reared to 8 weeks of age were anaesthetized, and a longitudinal incision was made in the medial side of the knee joint. […] The damage degree of articular cartilage was observed by Safranin-O/ fast green staining and quantitatively evaluated by OARSI score. […]

COC(=O)CCC(=O)C(=O)OC [α-KG, dimethyl-α-ketoglutarate]
gene and protein expressions of catabolic phenotypic genes MMP3, MMP13, ADAMTS5, NOS2 at different time periods (chondrocytes [1]; q-PCR and western blot, 6 h, 12 h, 24 h, 36 h, 10 ng/ml IL-1β + 7 mM α-KG): could inhibit the gene and protein expressions
expression of cartilage catabolic phenotypic genes MMP3, MMP13, ADAMTS5, NOS2 (chondrocytes [1]; q-PCR, 24 h, 10 ng/ml IL-1β + 7 mM α-KG): inhibit the expression
protein expression of cartilage catabolic phenotypic genes MMP3, MMP13, ADAMTS5, NOS2 (chondrocytes [1]; western blot, 24 h, 10 ng/ml IL-1β + 7 mM α-KG): inhibited the protein expression
expressions of catabolic phenotypes (metalloproteases MMP2, MMP3, MMP8, MMP9, MMP12, MMP13, MMP27; aggrecanases ADAMTS5, 7, 12, 15, 16, 17; NOS2) of chondrocytes (chondrocytes [1]; whole-genome sequencing, 10 ng/ml IL-1β + 7 mM α-KG vs IL-1β group): suppressed
expressions of chondrocyte synthetic genes SOX9, COL2A1, ACAN (chondrocytes [2]; q-PCR, 10 ng/ml IL-1β + 7 mM α-KG): promote the expressions
protein expressions of chondrocyte synthetic genes SOX9 and COL2A (chondrocytes [2]; western blot, 6 h, 12 h, 24 h, 36 h, 10 ng/ml IL-1β + 7 mM α-KG): promote the protein expressions
expressions of synthetic phenotypic genes (SOX9, COL2A1, ACAN, COL9A1, COL9A2, COL9A3, COL11A1, COL11A2) of chondrocytes (chondrocytes [2]; whole-genome sequencing, 24 h, 10 ng/ml IL-1β + 7 mM α-KG vs IL-1β group): increased
OARSI score, damage degree of articular cartilage (articular cartilage): significantly inhibit the progression of osteoarthritis
cartilage damage / progression of osteoarthritis (Safranin O/fast green histology) (articular cartilage; DMM+αKG group vs DMM group): no significant cartilage damage
